Each structure is given as a SMILES string.

The test deals with IFN-a/Jak1Tyk2. The experiment in a line: Co-stimulation assay in lysed whole blood: IFNa (JAK1/TYK2) stimulated STAT1 phosphorylation. To be noted: 20 min, lysed human whole blood, IFNa 100 ng/mL + GM-CSF 10 ng/mL, pSTAT1 by flow cytometry. It counts as cell-based. The procedure:
Dilute RBC lysis buffer to 1× in distilled water. Add 2 mL blood to 38 mL of 1×RBC-lysis buffer. Incubate for 15 mins at RT, in dark. Spin at 300 g, 5 mins, to collect the pellet. Re-lyse if necessary. Re-suspend pellet in 5 mL of cRPMI.
Aliquot 80 μL of lysed human blood in to wells of 96 deep-well plate. Add 10 μl of (10× conc.) of different concentrations of compounds to all wells except controls (unstained and unstimulated) and mix it with the help of 100 uL multichannel. Add 10 uL of RPMI media in controls. For dilution of compounds and dilution range please refer Appendix. Incubate on water bath or CO2 incubator for 1 hour at 37° C. Add 10 μl of (10× conc.) of cytokine mix (GM-CSF and IFNa) (final conc. 10 ng/mL of GM-CSF and 100 ng/mL of IFNa) to each well except unstimulated and unstained controls and incubate further for 20 minutes on water bath at 37° C.
Add 900 μL of prewarmed 1× Fix/Lyse solution (Appendix) and mix it properly using 1000 μl multichannel, incubate further on water bath at 37° C. for 10 minutes (which includes time of addition). Centrifuge at 800×g for 5 minutes at 40° C.; remove 900 uL of supernatant and add 900 μL of 1×PBS. Centrifuge at 800×g for 5 minutes at 40° C., remove 900 μL of supernatant. Wash one more time with 900 μL of PBS (optional) and resuspend pellets in 100 uL of PBS.
Disrupt the pellet by gentle tapping and resuspend in 1000 μL of BD Phosflow Perm Buffer III and incubate plate on ice for 30 minutes. Centrifuge plate at 800×g for 5 minutes at 40° C. Wash two more times with 1000 μL of BD Pharmingen Stain Buffer.
Disrupt the pellet by gentle tapping. Resuspend pellets in 100 uL of Stain Buffer and add 5 μL of pSTAT5_AF488 Ab and 5 uL of pSTAT1_PE in all wells except unstained control and mix properly using 200 μl multichannel, incubate overnight at […]. Add 900 μL of wash buffer and centrifuge at 1800 rpm for 3 minutes at […]. Wash one more time with 1000 μL of BD Pharmingen Stain Buffer. Finally resuspend the pellet in 300 uL of BD Pharmingen Stain Buffer. Transfer the cells to 96-well v-bottom plate and acquire the cells in Beckman Coulter CytExpert. Acquiring cells in Flow Cytometer: Keep the threshold value to 250 and cell concentration should not exceed 100-500 cells/μL. Acquire at least 5,000-10,000 cells.
Cytokine dilution: 1) GM-CSF Stock at 100 ug/mL. Prepare an intermediate dilution of 1 ug/mL by adding 2 uL of stock into 198 uL of cRPMI. Further dilute to 100 ng/mL by adding 100 uL of the intermediate stock to 900 uL of cRPMI. 2) IFNa Stock at 200 ug/mL. Dilute IFNa stock 1:200 by adding 5 uL of stock into the 1000 uL of 100 ng/mL GM-CSF working stock as above to give a combined working stock of 1000 ng/mL of IFNa and 100 ng/mL GM-CSF (10×). Keep it on ice until used.
Lyse/Fix buffer preparation: Dilute 5× Lyse/Fix buffer to 1× using MQ water and keep at 37° C. until used.
BD Phosflow perm buffer III: Keep on ice/fridge.
On the technique in general: Flow cytometry measures light scatter and fluorescence of single cells or particles in a stream.
As to `CCOC(=O)c1nn(C)cc1Nc1cc(NC)n2ncc(C(=O)NC3CC3)c2n1` [Compound 42, ethyl 4-((3-(cyclopropylcarbamoyl)-7-(methylamino)pyrazolo[1,5-a]pyrimidin-5-yl)amino)-1-methyl-1H-pyrazole-3-carboxylate], the IC50 – broadly, the point on the concentration scale where inhibition reaches its midpoint – is 100 to 1000 nM.

`CNC(=O)c1nscc1Nc1cc(NC)n2ncc(C(=O)NC3CC3)c2n1` [Compound 43, 4-((3-(cyclopropylcarbamoyl)-7-(methylamino)pyrazolo[1,5-a]pyrimidin-5-yl)amino)-N-methylisothiazole-3-carboxamide]: the IC50 was below 100 nM. Consider `CNC(=O)c1cscc1Nc1cc(NC)n2ncc(C(=O)NC3CC3)c2n1` [Compound 44, N-cyclopropyl-7-(methylamino)-5-((4-(methylcarbamoyl)thiophen-3-yl)amino)pyrazolo[1,5-a]pyrimidine-3-carboxamide], for which the IC50 is 100 to 1000 nM. Regarding `CCOC(=O)c1nscc1Nc1cc(NC)n2ncc(C(=O)NCCOC)c2n1` [Compound 45, ethyl 4-((3-((2-methoxyethyl)carbamoyl)-7-(methylamino)pyrazolo[1,5-a]pyrimidin-5-yl)amino)isothiazole-3-carboxylate], the IC50 is above 300 nM.

Consider `CNc1cc(Nc2csnc2C(=O)O)nc2c(C(=O)NCCOC)cnn12` [Compound 46, 4-((3-((2-methoxyethyl)carbamoyl)-7-(methylamino)pyrazolo[1,5-a]pyrimidin-5-yl)amino)isothiazole-3-carboxylic acid], for which the IC50 is above 300 nM. Turning to `CNc1cc(Nc2cnn(CCOC)c2)nc2c(C(=O)NC3CC3)cnn12` [Compound 47, N-cyclopropyl-5-((1-(2-methoxyethyl)-1H-pyrazol-4-yl)amino)-7-(methylamino)pyrazolo[1,5-a]pyrimidine-3-carboxamide], the IC50 is above 300 nM. The figure for `CNc1cc(Nc2cccc3c2OC(F)(F)O3)nc2c(C(=O)NCC(C)(C)CO)cnn12` [Compound 48, 5-((2,2-difluorobenzo[d][1,3]dioxol-4-yl)amino)-N-(3-hydroxy-2,2-dimethylpropyl)-7-(methylamino)pyrazolo[1,5-a]pyrimidine-3-carboxamide] is below 100 nM. The figure for `CNc1cc(Nc2c(Cl)ccc3c2OCO3)nc2c(C(=O)NCC(C)(C)CO)cnn12` [Compound 49, 5-((5-chlorobenzo[d][1,3]dioxol-4-yl)amino)-N-(3-hydroxy-2,2-dimethylpropyl)-7-(methylamino)pyrazolo[1,5-a]pyrimidine-3-carboxamide] is 1000 to 10000 nM; for `CNc1cc(Nc2cccc3c2OCO3)nc2c(C(=O)NCC(C)(C)CO)cnn12` [Compound 50, 5-(benzo[d][1,3]dioxol-4-ylamino)-N-(3-hydroxy-2,2-dimethylpropyl)-7-(methylamino)pyrazolo[1,5-a]pyrimidine-3-carboxamide] it is below 100 nM. Turning to `CNc1cc(Nc2cccc(N3CCN(C)CC3)c2)nc2c(C(=O)NC3CC3)cnn12` [Compound 51, N-cyclopropyl-7-(methylamino)-5-((3-(4-methylpiperazin-1-yl)phenyl)amino)pyrazolo[1,5-a]pyrimidine-3-carboxamide], the IC50 was below 100 nM.

For the compound `CNc1cc(Nc2cccc3c2OCCO3)nc2c(C(=O)NCC(F)(F)F)cnn12` [Compound 52, 5-((2,3-dihydrobenzo[b][1,4]dioxin-5-yl)amino)-7-(methylamino)-N-(2,2,2-trifluoroethyl)pyrazolo[1,5-a]pyrimidine-3-carboxamide], the IC50 lay within 100 to 1000 nM. The figure for `CNc1cc(Nc2ccnn2C)nc2c(C(=O)NC3CC3)cnn12` [Compound 53, N-cyclopropyl-5-((1-methyl-1H-pyrazol-5-yl)amino)-7-(methylamino)pyrazolo[1,5-a]pyrimidine-3-carboxamide] is 100 to 1000 nM; for `CNc1cc(Nc2ccccc2OC(F)(F)F)nc2c(C(=O)NC3CC3)cnn12` [Compound 54, N-cyclopropyl-7-(methylamino)-5-((2-(trifluoromethoxy)phenyl)amino) pyrazolo[1,5-a]pyrimidine-3-carboxamide] it is 100 to 1000 nM; for `CNc1cc(Nc2cccc(N3CCOCC3)c2)nc2c(C(=O)NC3CC3)cnn12` [Compound 55, N-cyclopropyl-7-(methylamino)-5-((3-morpholinophenyl)amino)pyrazolo [1,5-a]pyrimidine-3-carboxamide] it is below 100 nM.

As for `CNc1cc(Nc2cc(C)cnc2OC)nc2c(C(=O)NC3CC3)cnn12` [Compound 56, N-cyclopropyl-5-((2-methoxy-5-methylpyridin-3-yl)amino)-7-(methylamino)pyrazolo[1,5-a]pyrimidine-3-carboxamide], the IC50 lay within 100 to 1000 nM.

In the case of `CNc1cc(Nc2cc(Cl)ccc2OC(F)(F)F)nc2c(C(=O)NC3CC3)cnn12` [Compound 57, 5-((5-chloro-2-(trifluoromethoxy)phenyl)amino)-N-cyclopropyl-7-(methylamino)pyrazolo[1,5-a]pyrimidine-3-carboxamide], the IC50 lay within 100 to 1000 nM. On to `CC(C)(CO)CNC(=O)c1cnn2c(N)cc(Nc3cccc4c3OCO4)nc12` [Compound 58, 7-amino-5-(benzo[d][1,3]dioxol-4-ylamino)-N-(3-hydroxy-2,2-dimethylpropyl)pyrazolo[1,5-a]pyrimidine-3-carboxamide], for which the IC50 lay in the range of 100 to 1000 nM.

Regarding `CC(C)(CO)CNC(=O)c1cnn2c(NC3CC3)cc(Nc3cccc4c3OCO4)nc12` [Compound 59, 5-(benzo[d][1,3]dioxol-4-ylamino)-7-(cyclopropylamino)-N-(3-hydroxy-2,2-dimethylpropyl)pyrazolo[1,5-a]pyrimidine-3-carboxamide], the IC50 was in the range of 1000 to 10000 nM. The figure for `CNc1cc(Nc2ccc3c(c2)CCN(C)C3)nc2c(C(=O)NC3CC3)cnn12` [Compound 60, N-cyclopropyl-5-((2-methyl-1,2,3,4-tetrahydroisoquinolin-6-yl)amino)-7-(methylamino)pyrazolo[1,5-a]pyrimidine-3-carboxamide] is 1000 to 10000 nM; for `CNc1cc(Nc2ccc3c(c2)CN(C)CC3)nc2c(C(=O)NC3CC3)cnn12` [Compound 61, N-cyclopropyl-5-((2-methyl-1,2,3,4-tetrahydroisoquinolin-7-yl)amino)-7-(methylamino)pyrazolo[1,5-a]pyrimidine-3-carboxamide] it is 1000 to 10000 nM; for `CNc1cc(Nc2cc(C(F)(F)F)cnc2OC)nc2c(C(=O)NC3CC3)cnn12` [Compound 62, N-cyclopropyl-5-((2-methoxy-5-(trifluoromethyl)pyridin-3-yl)amino)-7-(methylamino)pyrazolo[1,5-a]pyrimidine-3-carboxamide] it is 1000 to 10000 nM. Under `CNc1cc(Nc2cccc3c2OCCO3)nc2c(C(=O)NCC(C)(C)O)cnn12` [Compound 63, 5-((2,3-dihydrobenzo[b][1,4]dioxin-5-yl)amino)-N-(2-hydroxy-2-methylpropyl)-7-(methylamino)pyrazolo[1,5-a]pyrimidine-3-carboxamide] stands below 100 nM; under `CNc1cc(Nc2ccn(CC(F)(F)F)n2)nc2c(C(=O)NC3CC3)cnn12` [Compound 64, N-cyclopropyl-7-(methylamino)-5-((1-(2,2,2-trifluoroethyl)-1H-pyrazol-3-yl)amino)pyrazolo[1,5-a]pyrimidine-3-carboxamide], above 300 nM. The figure for `CNc1cc(Nc2cccc3c2OCCO3)nc2c(C(=O)NCC(C)(O)CO)cnn12` (stereo not shown) [Compound 65, 5-((2,3-dihydrobenzo[b][1,4]doxin-5-yl)amino)-N-(2,3-dihydroxy-2-methylpropyl)-7-(methylamino)pyrazolo[1,5-a]pyrimidine-3-carboxamide] is below 100 nM; for `CNc1cc(Nc2cccn(-c3ccc(OC)nn3)c2=O)nc2c(C(=O)NCC(C)(C)CO)cnn12` [Compound 66, N-(3-hydroxy-2,2-dimethylpropyl)-5-((1-(6-methoxypyridazin-3-yl)-2-oxo-1,2-dihydropyridin-3-yl)amino)-7-(methylamino)pyrazolo[1,5-a]pyrimidine-3-carboxamide] it is 100 to 1000 nM.

The values are drawn from patent US20220135567A1, “TYK2 PSEUDOKINASE LIGANDS” (Ventyx Biosciences, Inc., priority 2019, published 2022).
